Experimental data: patent publication US5663194A, “Chroman-2-ylmethylamino derivatives” (priority 1996, dated 1997)

Assays:
dopamine D-2 receptor = target: T1, dopamine D-2 receptor (Rattus norvegicus, UniProt P61169); experiment: Affinity for the dopamine D-2 receptor: 3H-spiroperidol (Spiper.) binding in homogenized limbic brain tissue; details: read-out: IC50 D2 Spiper.
T1 construct: homogenized limbic brain tissue is incubated with; from tissue; host or cells: limbic brain tissue, homogenized

α1 = experiment: α1; format: binding
5-HT1a = target: T2, 5-HT1a (Homo sapiens, UniProt P08908); experiment: 5-HT1a; format: binding
T2 sequence (P08908 1-422): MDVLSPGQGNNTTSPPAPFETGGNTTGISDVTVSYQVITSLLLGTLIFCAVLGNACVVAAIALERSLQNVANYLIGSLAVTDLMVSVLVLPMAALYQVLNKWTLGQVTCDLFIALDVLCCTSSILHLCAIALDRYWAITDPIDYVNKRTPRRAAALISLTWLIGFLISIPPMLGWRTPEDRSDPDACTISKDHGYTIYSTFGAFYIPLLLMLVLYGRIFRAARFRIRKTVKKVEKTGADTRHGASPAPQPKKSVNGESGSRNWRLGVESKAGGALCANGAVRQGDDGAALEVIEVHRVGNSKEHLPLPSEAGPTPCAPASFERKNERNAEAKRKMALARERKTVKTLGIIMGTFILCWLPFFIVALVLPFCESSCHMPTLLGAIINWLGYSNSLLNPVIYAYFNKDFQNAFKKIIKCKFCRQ

[1] = target: T3, dopamine autoreceptor (D2) (Rattus norvegicus, UniProt P61169); experiment: Affinity for the dopamine autoreceptor: 3H-quinpirole (Quin.) binding in homogenized rat striatal brain tissue
T3 construct: homogenized rat striatal brain tissue is incubated with; from tissue; host or cells: rat striatal brain tissue, homogenized
T3 sequence (P61169 whole entry): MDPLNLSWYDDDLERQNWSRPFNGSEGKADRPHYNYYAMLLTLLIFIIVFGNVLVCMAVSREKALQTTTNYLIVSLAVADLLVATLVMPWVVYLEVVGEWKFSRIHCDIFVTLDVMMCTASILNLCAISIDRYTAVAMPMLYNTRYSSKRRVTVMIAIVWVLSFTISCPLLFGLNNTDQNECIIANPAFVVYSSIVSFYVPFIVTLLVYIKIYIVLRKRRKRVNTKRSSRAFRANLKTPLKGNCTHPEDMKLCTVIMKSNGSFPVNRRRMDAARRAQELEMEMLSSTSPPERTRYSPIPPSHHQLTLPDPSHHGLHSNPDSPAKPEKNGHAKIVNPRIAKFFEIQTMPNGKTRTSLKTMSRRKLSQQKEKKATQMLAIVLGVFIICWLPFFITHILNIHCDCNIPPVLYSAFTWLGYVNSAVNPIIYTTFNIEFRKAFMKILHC

T1 sequence (P61169 whole entry): as above

CCCNCC1CCc2ccc(NS(C)(=O)=O)cc2O1 (centres unmarked) [Example 1c, N-(2-Propylaminomethyl-chroman-7-yl)-methanesulfonamide]
IC50 (dopamine D-2 receptor): 4860 nM | IC50 (α1): 1420 nM | IC50 (5-HT1a): 218 nM | IC50 [1]: 184 nM

c1ccc(CNCC2CCc3ccccc3O2)cc1 (centres unmarked) [reference compound]
IC50 (α1): 630 nM
